DBAASP
Converted amounts (≈) assume the structure as drawn. “And” between values parts separate entries of the source, which are not always exact repeats. Equal values may be shown once. Values belong to the compound of their own block, whether it stands above or below them.

Legend:
Test in all cases: ≥ marks a high value that may be exact or a test limit, other limits are often not marked, values filed in µg/mL are converted to µM
[1] = system: Pseudomonas aeruginosa MR3007
[2] = system: Neisseria gonorrhoeae FA19
Escherichia coli ML-35p = system: Escherichia coli ML-35p
Bacillus subtilis = system: Bacillus subtilis
[3] = system: Neisseria gonorrhoeae F62
Candida albicans = system: Candida albicans
[4] = system: Listeria monocytogenes EGD
[5] = system: Staphylococcus aureus 930918-3
[6] = system: Escherichia coli ATCC 27325
[7] = system: Cryptococcus neoformans ATCC 34881
[8] = system: Staphylococcus aureus ATCC 15752
[9] = system: Pseudomonas aeruginosa ATCC 27853
[10] = system: Candida albicans ATCC 10231
[11] = system: Bacillus subtilis KCTC 3038
[12] = system: Salmonella typhimurium KCTC 2370
[13] = system: Enterococcus faecalis ATCC 29212
[14] = system: Micrococcus luteus ATCC 10240
[15] = system: Saccharomyces cerevisiae ATCC 44774
[16] = system: Bacillus subtilis ISW 1214
Escherichia coli BL21 = system: Escherichia coli BL21
[17] = system: Acinetobacter baumannii CCARM 12036
[18] = system: Staphylococcus aureus CCARM 3090
[19] = system: Pseudomonas aeruginosa KCTC 2513
[20] = system: Escherichia coli CCARM 1238
[21] = system: Acinetobacter baumannii CCARM 12035
[22] = system: Pseudomonas aeruginosa CCARM 2002
[23] = system: Pseudomonas aeruginosa KCTC 2004
[24] = system: Pseudomonas aeruginosa CCARM 2163
[25] = system: Acinetobacter baumannii CCARM 12005
[26] = system: Staphylococcus aureus CCARM 3089
[27] = system: Staphylococcus epidermidis KCTC 1917
[28] = system: Escherichia coli KCTC 2571
[29] = system: Staphylococcus aureus CCARM 3126
[30] = system: Bacillus subtilis KCTC 1022
[31] = system: Salmonella typhimurium KCTC 1926
[32] = system: Staphylococcus aureus KCTC 3881
[33] = system: Salmonella typhimurium CCARM 8003
[34] = system: Escherichia coli KCTC 2593
[35] = system: Bacillus subtilis KCTC 3068
[36] = system: Pseudomonas aeruginosa KCTC 1637
[37] = system: Salmonella typhimurium CCARM 8007
[38] = system: Acinetobacter baumannii CCARM 12037
[39] = system: Escherichia coli CCARM 1229
[40] = system: Staphylococcus aureus CCARM 3108
[41] = system: Pseudomonas aeruginosa CCARM 2095
[42] = system: Staphylococcus aureus KCTC 1916
[43] = system: Escherichia coli KCTC 1682
[44] = system: Bacillus subtilis KCTC 1021
[45] = system: Pseudomonas aeruginosa CCARM 2003
[46] = system: Staphylococcus aureus CCARM 3114
[47] = system: Staphylococcus aureus KCTC 1621
[48] = system: Salmonella typhimurium CCARM 8009

MIC [1]: 0.2 µM and 0.29 µM
MIC [2]: 1.34 µM (≈ 2.03 µg/mL)
MIC (Escherichia coli ML-35p): 0.28 µM and 0.26 µM
MIC (Bacillus subtilis): 0.22 µM and 0.21 µM
MIC [3]: 0.64 µM (≈ 0.97 µg/mL)
MIC (Candida albicans): 7.58 µM (≈ 11.5 µg/mL)
MIC [4]: 0.26 µM and 0.55 µM
MIC [5]: 0.33 µM and 0.4 µM
Structure (SMILES): CC(C)C[C@H](N)C(=O)N[C@H]1CSSC[C@@H](C(=O)N[C@H](C(N)=O)C(C)C)NC(=O)[C@H](C(C)C)NC(=O)[C@@H]2CSSC[C@H](NC(=O)[C@H](Cc3ccc(O)cc3)NC1=O)C(=O)N[C@@H](CCCN=C(N)N)C(=O)N[C@@H](CCCN=C(N)N)C(=O)N[C@@H](CCCN=C(N)N)C(=O)N[C@@H](Cc1ccccc1)C(=O)N2 [LCYCRRRFCVCV]

MIC [6]: ≥ 36.6 µM
MIC [7]: ≥ 36.6 µM
MIC [8]: ≥ 36.6 µM
MIC [9]: 9.15 µM (≈ 16 µg/mL)
MIC [10]: 36.6 µM (≈ 64 µg/mL)
MIC [11]: ≥ 36.6 µM
MIC [12]: ≥ 36.6 µM
MIC [13]: > 36.6 µM
MIC [14]: ≥ 36.6 µM
MIC [15]: 18.3 µM (≈ 32 µg/mL)
Structure (SMILES): CC(C)[C@H](NC(=O)CNC(=O)[C@H](CCC(N)=O)NC(=O)[C@@H](NC(=O)[C@@H](NC(=O)[C@@H]1CCCN1C(=O)[C@H](CCCN=C(N)N)NC(=O)[C@@H](NC(=O)[C@@H](NC(=O)[C@@H](N)CCCN=C(N)N)C(C)C)C(C)C)C(C)C)C(C)C)C(=O)N[C@@H](CCCCN)C(=O)N[C@@H](CCC(N)=O)C(=O)N[C@@H](CCCCN)C(=O)N[C@H](C(=O)N[C@@H](CCCN=C(N)N)C(=O)O)C(C)C [RVVRPVVQGVKQKVR]

MIC [16]: 2.5 µM (≈ 7.9 µg/mL)
MIC (Escherichia coli BL21): ≥ 160 µM
Structure (SMILES): CC(=O)NCC(=O)N[C@@H](Cc1c[nH]c2ccccc12)C(=O)N[C@@H](CC(C)C)C(=O)N[C@@H](CCC(N)=O)C(=O)N[C@@H](CC(C)C)C(=O)N[C@@H](C)C(=O)N[C@@H](CCC(N)=O)C(=O)N[C@@H](Cc1cnc[nH]1)C(=O)N[C@@H](CC(C)C)C(=O)N[C@@H](CC(C)C)C(=O)N[C@@H](CCC(N)=O)C(=O)N[C@@H](CC(C)C)C(=O)NCC(=O)N[C@@H](CCC(N)=O)C(=O)N[C@@H](Cc1cnc[nH]1)C(=O)N[C@@H](CC(C)C)C(=O)N[C@@H](CC(C)C)C(=O)N[C@@H](CCC(N)=O)C(=O)N[C@@H](CC(C)C)C(=O)N[C@@H](C)C(=O)N[C@@H](CCC(N)=O)C(=O)N[C@@H](CCC(N)=O)C(=O)N[C@@H](CC(C)C)C(=O)N[C@@H](CCCN=C(N)N)C(=O)N[C@@H](CCCN=C(N)N)C(=O)N[C@@H](CCCN=C(N)N)C(N)=O [GWLQLAQHLLQLGQHLLQLAQQLRRR]

MIC [17]: 2 µM (≈ 5.2 µg/mL)
MIC [18]: 8 µM (≈ 20.8 µg/mL)
MIC [19]: 2 µM (≈ 5.2 µg/mL)
MIC [20]: 4 µM (≈ 10.4 µg/mL)
MIC [21]: 2 µM (≈ 5.2 µg/mL)
MIC [22]: 2 µM (≈ 5.2 µg/mL)
MIC [23]: 2 µM (≈ 5.2 µg/mL)
MIC [24]: 2 µM (≈ 5.2 µg/mL)
MIC [25]: 2 µM (≈ 5.2 µg/mL)
MIC [26]: 8 µM (≈ 20.8 µg/mL)
MIC [27]: 1 µM (≈ 2.6 µg/mL)
MIC [28]: 2 µM (≈ 5.2 µg/mL)
MIC [29]: 4 µM (≈ 10.4 µg/mL)
MIC [30]: 2 µM (≈ 5.2 µg/mL)
MIC [31]: 1 µM (≈ 2.6 µg/mL)
MIC [32]: 1 µM (≈ 2.6 µg/mL)
MIC [33]: 8 µM (≈ 20.8 µg/mL)
MIC [34]: 2 µM (≈ 5.2 µg/mL)
MIC [35]: 1 µM (≈ 2.6 µg/mL)
MIC [36]: 1 µM (≈ 2.6 µg/mL)
MIC [37]: 4 µM (≈ 10.4 µg/mL)
MIC [38]: 2 µM (≈ 5.2 µg/mL)
MIC [39]: 4 µM (≈ 10.4 µg/mL)
MIC [40]: 4 µM (≈ 10.4 µg/mL)
MIC [41]: 2 µM (≈ 5.2 µg/mL)
MIC [42]: 2 µM (≈ 5.2 µg/mL)
MIC [43]: 1 µM (≈ 2.6 µg/mL)
MIC [44]: 4 µM (≈ 10.4 µg/mL)
MIC [45]: 2 µM (≈ 5.2 µg/mL)
MIC [46]: 4 µM (≈ 10.4 µg/mL)
MIC [47]: 1 µM (≈ 2.6 µg/mL)
MIC [48]: 4 µM (≈ 10.4 µg/mL)
Structure (SMILES): CC[C@H](C)[C@H](NC(=O)CNC(=O)[C@H](CCCN=C(N)N)NC(=O)[C@H](Cc1ccccc1)NC(=O)[C@@H](NC(=O)[C@H](Cc1cnc[nH]1)NC(=O)[C@H](Cc1cnc[nH]1)NC(=O)[C@H](Cc1ccccc1)NC(=O)[C@@H](N)Cc1ccccc1)[C@@H](C)CC)C(=O)N[C@@H](CCCCN)C(=O)N[C@@H](Cc1cnc[nH]1)C(=O)N[C@H](C(=O)NCC(=O)N[C@@H](CCCCN)C(=O)N[C@H](C(=O)N[C@H](C(=O)N[C@@H](Cc1cnc[nH]1)C(=O)N[C@@H](CCCN=C(N)N)C(=O)N[C@@H](CC(C)C)C(=O)N[C@H](C(=O)N[C@H](C(=O)NCC(=O)O)[C@@H](C)O)C(C)C)[C@@H](C)CC)[C@@H](C)O)C(C)C [FFHHIFRGIKHVGKTIHRLVTG]
